In patent US7807684B2, “HIV reverse transcriptase inhibitors” (Merck Sharp & Dohme Corp., priority 2005, dated 2010) one finds Bioavailability data, which are given here for 1 compound.

This data set in a line: Oral dosing to rats, bioavailability. The following applies: compared to analogous dosing of the compound of Example 36. In kind it is in vivo.

As to `CNCCN(C)C(=O)n1nc(COc2ccc(Cl)c(Oc3cc(Cl)cc(C#N)c3)c2)c2cccnc21.Cl` [Example 59, 2-[[(3-{[4-chloro-3-(3-chloro-5-cyanophenoxy)phenoxy]methyl}-1H-pyrazolo[3,4-b]pyridin-1-yl)carbonyl](methyl)amino]-N-methylethanaminium chloride], the Bioavailability entry is on record as “substantially higher bioavailability”.
